≈ marks a conversion by molar mass, not a printed value.
Key:
Assay in all cases: MIC against standard strain, plate method
Type in all cases: cell-based
Escherichia coli NIHJ = conditions: unit assumed
Experimental: (§1) The minimum inhibitory concentrations (MIC) was determined by the plate method disclosed in "Chemotherapy" (Japan), Vol. 16, (1968), pages 98 - 99. The culture medium used was a Heart infusion agar (pH 7.4). The number of the cells per plate used in the inoculum as 10^4 (10^6 cells/ml).

[1] = test system: Staphylococcus aureus 209p; conditions: unit assumed
Experimental: as §1

Proteus vulgaris 3027 = conditions: Proteus vulgaris 3027, standard strain; unit assumed
Experimental: as §1

Klebsiella pneumoniae = conditions: unit assumed
Experimental: as §1

[2] = test system: Pseudomonas aeruginosa I.F.O.; conditions: unit assumed
Experimental: as §1

Molecule CC1(C)S[C@@H]2[C@H](NC(=O)[C@H](NC(=O)N3CCN(Cc4ccccc4)C(=O)C3)c3ccccc3)C(=O)N2[C@H]1C(=O)O [compound 23] has an MIC (Escherichia coli NIHJ) of under 1.57 µg/mL, an MIC [1] of under 1.57 µg/mL and an MIC (Proteus vulgaris 3027) of 3.13 µg/mL (≈ 5.53 µM). It also gave an MIC (Klebsiella pneumoniae) of 6.25 µg/mL (≈ 11 µM) and an MIC [2] of 25 µg/mL (≈ 44.2 µM).
CCCCCCCCN1CCN(C(=O)NC(C(=O)NC2C(=O)N3C2SC(C)(C)C3C(=O)OCCN2CCOCC2)c2ccccc2)C(=O)C1=O (centres unmarked) [compound 56] was tested, and the MIC (Escherichia coli NIHJ) was under 0.4 µg/mL, the MIC [1] was under 0.4 µg/mL and the MIC (Proteus vulgaris 3027) was 0.79 µg/mL (≈ 1.11 µM). The MIC (Klebsiella pneumoniae) was 1.57 µg/mL (≈ 2.2 µM) and the MIC [2] was 12.5 µg/mL (≈ 17.5 µM).
Work on CN1CCN(C(=O)N[C@@H](C(=O)N[C@@H]2C(=O)N3[C@@H]2SC(C)(C)[C@@H]3C(=O)OC2OC(=O)c3ccccc32)c2ccccc2)C(=O)C1=O (single isomer, unassigned) [compound 49] yielded an MIC (Escherichia coli NIHJ) of 0.79 µg/mL (≈ 1.24 µM), an MIC [1] of under 0.4 µg/mL and an MIC (Proteus vulgaris 3027) of 1.57 µg/mL (≈ 2.47 µM). It also gave an MIC (Klebsiella pneumoniae) of 12.5 µg/mL (≈ 19.7 µM) and an MIC [2] of 12.5 µg/mL (≈ 19.7 µM).
With CCCCCCCCCCCCN1CCN(C(=O)N[C@@H](C(=O)N[C@@H]2C(=O)N3[C@@H]2SC(C)(C)[C@@H]3C(=O)O)c2ccccc2)CC1=O [compound 31] the MIC (Escherichia coli NIHJ) was under 1.57 µg/mL, the MIC [1] was under 1.57 µg/mL and the MIC (Proteus vulgaris 3027) was under 1.57 µg/mL. The MIC (Klebsiella pneumoniae) was 6.25 µg/mL (≈ 9.71 µM) and the MIC [2] was 12.5 µg/mL (≈ 19.4 µM).
Work on CCCCCCCCN1CCN(C(=O)N[C@@H](C(=O)N[C@@H]2C(=O)N3[C@@H]2SC(C)(C)[C@@H]3C(=O)OCOC)c2ccccc2)C(=O)C1=O (single isomer, unassigned) [compound 51] yielded an MIC (Escherichia coli NIHJ) of under 0.4 µg/mL, an MIC [1] of under 0.4 µg/mL and an MIC (Proteus vulgaris 3027) of under 0.4 µg/mL. It also gave an MIC (Klebsiella pneumoniae) of under 0.4 µg/mL and an MIC [2] of 12.5 µg/mL (≈ 19.4 µM).
Work on CCCCN1C(=O)CN(C(=O)N[C@@H](C(=O)N[C@@H]2C(=O)N3[C@@H]2SC(C)(C)[C@@H]3C(=O)O)c2ccccc2)CC1C (some centres unmarked) [compound 22] yielded an MIC (Escherichia coli NIHJ) of under 1.57 µg/mL, an MIC [1] of under 1.57 µg/mL and an MIC (Proteus vulgaris 3027) of 6.25 µg/mL (≈ 11.5 µM). It also gave an MIC (Klebsiella pneumoniae) of 12.5 µg/mL (≈ 22.9 µM) and an MIC [2] of 50 µg/mL (≈ 91.6 µM).
Molecule CN1CCN(C(=O)NC(C(=O)NC2C(=O)N3C(C(=O)O)=C(CSc4nncn4C)CSC23)c2ccccc2)C(=O)C1=O (single isomer, unassigned) [compound 65] has an MIC (Escherichia coli NIHJ) of 0.79 µg/mL (≈ 1.29 µM), an MIC [1] of 3.13 µg/mL (≈ 5.09 µM) and an MIC (Proteus vulgaris 3027) of 3.13 µg/mL (≈ 5.09 µM). It also gave an MIC (Klebsiella pneumoniae) of 3.13 µg/mL (≈ 5.09 µM) and an MIC [2] of 25 µg/mL (≈ 40.7 µM).
Molecule CCOC(=O)N1CCN(C(=O)N[C@@H](C(=O)N[C@@H]2C(=O)N3[C@@H]2SC(C)(C)[C@@H]3C(=O)O)c2ccccc2)C(=O)C1 [compound 12] has an MIC (Escherichia coli NIHJ) of 3.13 µg/mL (≈ 5.72 µM), an MIC [1] of under 1.57 µg/mL and an MIC (Proteus vulgaris 3027) of 12.5 µg/mL (≈ 22.8 µM). It also gave an MIC (Klebsiella pneumoniae) of 6.25 µg/mL (≈ 11.4 µM) and an MIC [2] of 50 µg/mL (≈ 91.3 µM).
Cc1ccc(C(=O)N2CCN(C(=O)N[C@@H](C(=O)N[C@@H]3C(=O)N4[C@@H]3SC(C)(C)[C@@H]4C(=O)O)c3ccccc3)C(=O)C2)cc1 [compound 9] gave an MIC (Escherichia coli NIHJ) of 3.13 µg/mL (≈ 5.27 µM), an MIC [1] of under 1.57 µg/mL and an MIC (Proteus vulgaris 3027) of 3.13 µg/mL (≈ 5.27 µM). For the same molecule, the MIC (Klebsiella pneumoniae) was 3.13 µg/mL (≈ 5.27 µM) and the MIC [2] was 100 µg/mL (≈ 168 µM).
In the case of CCN1CCN(C(=S)NC(C(=O)NC2C(=O)N3C(C(=O)O)=C(COC(C)=O)CSC23)c2ccccc2)C(=O)C1=O (centres unmarked) [compound 67], the MIC (Escherichia coli NIHJ) is reported as under 0.79 µg/mL, the MIC [1] is reported as 6.25 µg/mL (≈ 10.6 µM) and the MIC (Proteus vulgaris 3027) is reported as 12.5 µg/mL (≈ 21.2 µM). For the same molecule, the MIC (Klebsiella pneumoniae) was 3.13 µg/mL (≈ 5.31 µM) and the MIC [2] was 100 µg/mL (≈ 170 µM).
